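1) Cells in 96-well plates. 2) Compound, 48 h, 5 concentrations. 3) Linear interpolation between surrounding doses. 4) Unreached endpoint = highest concentration. The concentration for full growth arrest is given as TGI.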
How the values were obtained:
Experiment in all cases: inhibition of tumour cell growth, NCI panel, 48 h
[1] = tested on: SF-539 CNS
[2] = tested on: SF-295 CNS
[3] = tested on: M14 melanoma
[4] = tested on: SNB-19 CNS
[5] = tested on: SR leukemia
[6] = tested on: KM12 colon
[7] = tested on: A549 NSCLC
[8] = tested on: T-47D breast
[9] = tested on: TK-10 renal
[10] = tested on: NCI-H226 lung
[11] = tested on: SK-OV-3 ovarian
[12] = tested on: HOP-92 NSCLC
[13] = tested on: OVCAR-4 ovarian
[14] = tested on: MCF7 breast
[15] = tested on: NCI-H460 lung
[16] = tested on: OVCAR-5 ovarian
[17] = tested on: COLO 205 colon
[18] = tested on: HL-60(TB) leukemia
[19] = tested on: OVCAR-3 ovarian
[20] = tested on: EKVX NSCLC
[21] = tested on: HCC-2998 colon
[22] = tested on: NCI-H23 lung
[23] = tested on: 786-0 renal
[24] = tested on: DU-145 prostate
[25] = tested on: MDA-N
[26] = tested on: SF-268 CNS
[27] = tested on: NCI/ADR-RES ovarian
[28] = tested on: CAKI-1 renal
[29] = tested on: IGROV1 ovarian
[30] = tested on: UACC-257 melanoma
[31] = tested on: A498 renal
[32] = tested on: HCT-15 colon
[33] = tested on: HS 578T breast
[34] = tested on: HT29 colon
[35] = tested on: OVCAR-8 ovarian
[36] = tested on: HCT-116 colon
[37] = tested on: SNB-75 CNS
[38] = tested on: SK-MEL-28 melanoma
[39] = tested on: U251 CNS
[40] = tested on: MALME-3M melanoma
[41] = tested on: UACC-62 melanoma
[42] = tested on: SN12C renal
[43] = tested on: SK-MEL-5 melanoma
[44] = tested on: PC-3 prostate
[45] = tested on: NCI-H522 lung
[46] = tested on: SW-620 colon
[47] = tested on: MDA-MB-435
[48] = tested on: ACHN renal
[49] = tested on: SK-MEL-2 melanoma
[50] = tested on: HOP-62 NSCLC
[51] = tested on: LOX IMVI melanoma
[52] = tested on: K-562 leukemia
[53] = tested on: UO-31 renal
[54] = tested on: RPMI-8226 leukemia
[55] = tested on: CCRF-CEM leukemia
[56] = tested on: BT-549 breast
[57] = tested on: MOLT-4 leukemia
[58] = tested on: RXF 393 renal

Measured: TGI

CC1=CC(c2ccccc2)OP1(=O)c1ccccc1 (stereo not drawn)
> 100 µM: [1] | [2] | [3] | [4] | [5] | [6] | [7] | [8] | [9] | [10] | [11] | [12] | [13] | [14] | [15] | [16] | [17] | [18] | [19] | [20] | [21] | [22] | [23] | [24] | [25] | [26] | [27] | [28] | [29] | [30] | [31] | [32] | [33] | [34] | [35] | [36] | [37] | [38] | [39] | [40] | [41] | [42] | [43] | [44] | [45] | [46] | [47] | [48] | [49] | [50] | [51] | [52]

CC(C)OP(=O)(OC(C)C)C(C(F)(F)F)C(F)(F)F
> 100 µM: [1] | [2] | [3] | [4] | [5] | [53] | [6] | [7] | [8] | [9] | [10] | [11] | [12] | [13] | [14] | [16] | [54] | [17] | [18] | [19] | [20] | [21] | [22] | [23] | [24] | [25] | [26] | [27] | [28] | [29] | [30] | [32] | [55] | [33] | [56] | [34] | [35] | [57] | [36] | [37] | [38] | [39] | [40] | [41] | [42] | [43] | [44] | [45] | [46] | [47] | [48] | [58] | [49] | [50] | [51] | [52]

From PubChem BioAssay (NCI)
